target: T1, human PAH with the R408W mutation (Homo sapiens, UniProt P00439, R408W); experiment: Cell Based Phenylalanine Flux Assay; details: A375 cells expressing human R408W PAH; 24 hrs compound incubation; 13C-Tyrosine by LC-MS; average where tested multiple times; read-out: AC50
T1 construct: expressed in transfected cells
T1 sequence (P00439 1-452 R408W): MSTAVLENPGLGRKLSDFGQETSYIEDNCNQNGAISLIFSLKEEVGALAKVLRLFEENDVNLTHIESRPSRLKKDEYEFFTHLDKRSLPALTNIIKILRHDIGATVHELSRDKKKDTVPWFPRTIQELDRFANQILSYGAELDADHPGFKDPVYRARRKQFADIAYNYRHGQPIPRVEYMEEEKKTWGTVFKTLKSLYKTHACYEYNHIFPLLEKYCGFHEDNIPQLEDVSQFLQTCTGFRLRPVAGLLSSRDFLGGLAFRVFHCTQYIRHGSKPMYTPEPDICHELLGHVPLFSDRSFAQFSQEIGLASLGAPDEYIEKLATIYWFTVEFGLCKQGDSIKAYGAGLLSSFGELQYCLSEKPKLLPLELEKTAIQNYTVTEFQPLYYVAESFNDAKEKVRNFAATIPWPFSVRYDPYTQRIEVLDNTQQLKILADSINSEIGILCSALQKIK

SMILES	AC50 [µM]
O=C(CCc1nccs1)N1CCc2[nH]cnc2[C@H]1c1ncc(-c2ccccc2)s1 [Example 2141]	< 0.5
O=C(CCc1nccs1)N1CCc2[nH]cnc2[C@@H]1c1ncc(-c2ccccc2)s1 [Example 2142, (R)-1-(4-(5-phenylthiazol-2-yl)-6,7-dihydro-1H-imidazo[4,5-c]pyridin-5(4H)-yl)-3-(thiazol-2-yl)propan-1-one]	> 5
O=C(CCc1nccs1)N1CCc2[nH]cnc2[C@H]1c1nc(-c2ccccc2)cs1 [Example 2143]	1 to 5
O=C(CCc1nccs1)N1CCc2[nH]cnc2[C@@H]1c1nc(-c2ccccc2)cs1 [Example 2144, (R)-1-(4-(4-phenylthiazol-2-yl)-6,7-dihydro-1H-imidazo[4,5-c]pyridin-5(4H)-yl)-3-(thiazol-2-yl)propan-1-one]	> 5
O=C(c1cncs1)N1CCc2[nH]cnc2[C@H]1c1ncc(-c2ccccc2)s1 [Example 2145]	< 0.5
O=C(c1cncs1)N1CCc2[nH]cnc2[C@@H]1c1ncc(-c2ccccc2)s1 [Example 2146, (R)-(4-(5-phenylthiazol-2-yl)-6,7-dihydro-1H-imidazo[4,5-c]pyridin-5(4H)-yl)(thiazol-5-yl)methanone]	> 5
O=C(CCc1nccs1)N1CCc2[nH]cnc2[C@H]1c1nc(C2CC2)cs1 [Example 2147]	> 5
O=C(CCc1nccs1)N1CCc2[nH]cnc2[C@H]1c1ncc(Br)s1 [Example 2148]	1 to 5
O=C(CCc1nccs1)N1CCc2[nH]cnc2[C@@H]1c1ncc(Br)s1 [Example 2149, (R)-1-(4-(5-bromothiazol-2-yl)-6,7-dihydro-1H-imidazo[4,5-c]pyridin-5(4H)-yl)-3-(thiazol-2-yl)propan-1-one]	> 5
O=C(CCc1nccs1)N1CCc2[nH]cnc2[C@H]1c1nc(Br)cs1 [Example 2150]	1 to 5
Cc1ncoc1C(=O)N1CC2(CC2)c2[nH]cnc2[C@H]1c1nc2ccccc2s1 [Example 2152, (S)-(4′-(benzo[d]thiazol-2-yl)spiro[cyclopropane-1,7′-imidazo[4,5-c]pyridin]-5′(1′H,4′H,6′H)-yl)(4-methyloxazol-5-yl)methanone]	0.5 to 1
O=C(c1ccno1)N1CCc2[nH]cnc2[C@H]1c1nc2cc(F)ccc2s1 [Example 2153, (S)-(4-(5-fluorobenzo [d]thiazol-2-yl)-6,7-dihydro-1H-imidazo[4,5-c]pyridin-5(4H)-yl) (iso xazol-5-yl)methanone]	1 to 5
O=C(c1ccno1)N1CCc2[nH]cnc2[C@@H]1c1nc2cc(F)ccc2s1 [Example 2154, (R)-(4-(5-fluorobenzo [d]thiazol-2-yl)-6,7-dihydro-1H-imidazo[4,5-c]pyridin-5(4H)-yl)(isoxazol-5-yl)methanone]	> 5
O=C(c1cnn2cc(CN3CCOCC3)ccc12)N1CCc2[nH]cnc2[C@H]1c1nc2ccccc2s1 [Example 2155]	1 to 5
O=C(c1cnn2cc(CN3CCOCC3)ccc12)N1CCc2[nH]cnc2[C@@H]1c1nc2ccccc2s1 [Example 2156, (R)-(4-(benzo[d]thiazol-2-yl)-6,7-dihydro-1H-imidazo[4,5-c]pyridin-5(4H)-yl)(6-(morpholinomethyl)pyrazolo[1,5-a]pyridin-3-yl)methanone]	> 5
[2H][C@@]1(c2nc3ccccc3s2)c2nc[nH]c2CCN1C(=O)c1cnc(-c2cnn(C)c2)s1 [Example 2157, [(4S)-4-(1,3-benzothiazol-2-yl)-4-deuterio-6,7-dihydro-1H-imidazo[4,5-c]pyridin-5-yl]-[2-(1-methylpyrazol-4-yl)thiazol-5-yl]methanone]	< 0.5
[2H][C@]1(c2nc3ccccc3s2)c2nc[nH]c2CCN1C(=O)c1cnc(-c2cnn(C)c2)s1 [Example 2158, [(4R)-4-(1,3-benzothiazol-2-yl)-4-deuterio-6,7-dihydro-1H-imidazo[4,5-c]pyridin-5-yl]-[2-(1-methylpyrazol-4-yl)thiazol-5-yl]methanone]	> 5
[2H][C@@]1(c2nc3ccccc3s2)c2nc[nH]c2CCN1C(=O)c1ocnc1C [Example 2159, [(4S)-4-(1,3-benzothiazol-2-yl)-4-deuterio-6,7-dihydro-1H-imidazo[4,5-c]pyridin-5-yl]-(4-methyloxazol-5-yl)methanone]	< 0.5
[2H][C@]1(c2nc3ccccc3s2)c2nc[nH]c2CCN1C(=O)c1ocnc1C [Example 2160, [(4R)-4-(1,3-benzothiazol-2-yl)-4-deuterio-6,7-dihydro-1H-imidazo[4,5-c]pyridin-5-yl]-(4-methyloxazol-5-yl)methanone]	> 5

SMILES	AC50 [µM]
[2H]c1nc2c([nH]1)CCN(C(=O)c1cnco1)[C@@H]2c1nc2c(F)cccc2s1 [Example 2161, [(4S)-2-deuterio-4-(4-fluoro-1,3-benzothiazol-2-yl)-1,4,6,7-tetrahydroimidazo[4,5-c]pyridin-5-yl]-oxazol-5-yl-methanone]	0.5 to 1
O=C(c1cnco1)N1CCc2[nH]cnc2[C@@H]1c1nc2c(F)cccc2s1 [Example 2162]	1 to 5
O=C(c1oc(C2CC2)nc1C(F)(F)F)N1CCc2[nH]cnc2[C@H]1c1nc2ccccc2s1 [Example 2163]	< 0.5
O=C(c1oc(C2CC2)nc1C(F)(F)F)N1CCc2[nH]cnc2[C@@H]1c1nc2ccccc2s1 [Example 2164, (R)-(4-(benzo[d]thiazol-2-yl)-6,7-dihydro-1H-imidazo[4,5-c]pyridin-5(4H)-yl)(2-cyclopropyl-4-(trifluoromethyl)oxazol-5-yl)methanone]	< 0.5
O=C(c1oc(N2CCOCC2)nc1C(F)(F)F)N1CCc2[nH]cnc2[C@H]1c1nc2ccccc2s1 [Example 2165]	< 0.5
O=C(c1ocnc1C1CC1)N1CCCC2NC=NC2[C@H]1c1nc2ccccc2s1 (stereo partly drawn) [Example 2167, ((4S)-4-(benzo[d]thiazol-2-yl)-3a,4,6,7,8,8a-hexahydroimidazo[4,5-c]azepin-5(1H)-yl)(4-cyclopropyloxazol-5-yl)methanone]	< 0.5
CC(C)(O)c1cc(C(=O)N2CCc3[nH]cnc3[C@@H]2c2nc3c(F)cccc3s2)on1 [Example 2169, (R)-(4-(4-fluorobenzo[d]thiazol-2-yl)-6,7-dihydro-1H-imidazo[4,5-c]pyridin-5(4H)-yl)(3-(2-hydroxypropan-2-yl)isoxazol-5-yl)methanone]	1 to 5
CC(C)(O)c1cc(C(=O)N2CCc3[nH]cnc3[C@H]2c2nc3c(F)cccc3s2)on1 [Example 2170, (S)-(4-(4-fluorobenzo[d]thiazol-2-yl)-6,7-dihydro-1H-imidazo[4,5-c]pyridin-5(4H)-yl)(3-(2-hydroxypropan-2-yl)isoxazol-5-yl)methanone]	1 to 5
Cn1nc(C(F)F)nc1C(=O)N1CCc2[nH]cnc2[C@H]1c1nc2ccccc2s1 [Example 2171]	1 to 5
Cn1nc(C(F)F)nc1C(=O)N1CCc2[nH]cnc2[C@@H]1c1nc2ccccc2s1 [Example 2172, (R)-(4-(benzo[d]thiazol-2-yl)-6,7-dihydro-1H-imidazo[4,5-c]pyridin-5(4H)-yl)(3-(difluoromethyl)-1-methyl-1H-1,2,4-triazol-5-yl)methanone]	> 5
Cc1ccc2sc([C@@H]3c4nc[nH]c4CCN3C(=O)c3cnco3)nc2c1 [Example 2173, (S)-(4-(5-methylbenzo[d]thiazol-2-yl)-6,7-dihydro-1H-imidazo[4,5-c]pyridin-5(4H)-yl)(oxazol-5-yl)methanone]	0.5 to 1
Cc1ccc2sc([C@H]3c4nc[nH]c4CCN3C(=O)c3cnco3)nc2c1 [Example 2174, (R)-(4-(5-methylbenzo[d]thiazol-2-yl)-6,7-dihydro-1H-imidazo[4,5-c]pyridin-5(4H)-yl)(oxazol-5-yl)methanone]	> 5
Cc1ccc2nc([C@@H]3c4nc[nH]c4CCN3C(=O)c3cnco3)sc2c1 [Example 2175, (S)-(4-(6-methylbenzo[d]thiazol-2-yl)-6,7-dihydro-1H-imidazo[4,5-c]pyridin-5(4H)-yl)(oxazol-5-yl)methanone]	0.5 to 1
O=C(c1ocnc1-c1ccccc1)N1CCc2[nH]cnc2[C@H]1c1nc2c(F)cccc2s1 [Example 2177, (S)-(4-(4-fluorobenzo[d]thiazol-2-yl)-6,7-dihydro-1H-imidazo[4,5-c]pyridin-5(4H)-yl)(4-phenyloxazol-5-yl)methanone]	0.5 to 1
O=C(c1ocnc1-c1ccccc1)N1CCc2[nH]cnc2[C@@H]1c1nc2c(F)cccc2s1 [Example 2178, (R)-(4-(4-fluorobenzo[d]thiazol-2-yl)-6,7-dihydro-1H-imidazo[4,5-c]pyridin-5(4H)-yl)(4-phenyloxazol-5-yl)methanone]	> 5
Cc1cccc2nc([C@@H]3c4nc[nH]c4CCN3C(=O)c3cnco3)sc12 [Example 2179, (S)-(4-(7-methylbenzo[d]thiazol-2-yl)-6,7-dihydro-1H-imidazo[4,5-c]pyridin-5(4H)-yl)(oxazol-5-yl)methanone]	< 0.5
Cc1cccc2nc([C@H]3c4nc[nH]c4CCN3C(=O)c3cnco3)sc12 [Example 2180, (R)-(4-(7-methylbenzo[d]thiazol-2-yl)-6,7-dihydro-1H-imidazo[4,5-c]pyridin-5(4H)-yl)(oxazol-5-yl)methanone]	> 5
CC(C)(C)c1ncoc1C(=O)N1CCc2[nH]cnc2[C@H]1c1nc2c(F)cccc2s1 [Example 2181]	< 0.5
